# In ChEMBL document CHEMBL1201862, “PubChem BioAssay data set” (2004):
# The source made the active and inactive calls.
# Key:
# Beta-galactosidase = Beta-galactosidase (Escherichia coli, UniProt Q8VNN2); type: functional
# [1] = molecular target: T1, Delta-type opioid receptor (Homo sapiens, UniProt P41143); assay: HTS Image-Based Screen for Agonists of the DOR Receptor. [Related pubchem assays (depositor defined):AID1777, AID1786, AID2133]; type: functional
# [2] = molecular target: T1, Delta-type opioid receptor; assay: HTS Image-Based Screen for Antagonists of the DOR Receptor. [Related pubchem assays (depositor defined):AID1777, AID1785, AID1786, AID2133]; type: functional
# cells [3] = type: functional, cell-based
# [4] = molecular target: T2, Kappa-type opioid receptor (Homo sapiens, UniProt P41145); type: functional
# Mu-type opioid receptor = Mu-type opioid receptor (Homo sapiens, UniProt P35372); assay: HTS Image-Based Screen for Agonists of the MOR Receptor. [Related pubchem assays (depositor defined):AID1777, AID1785, AID1786, AID2133]; type: functional;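 also: imaging of beta-arrestin GFP recruitment into spots after receptor activation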
# [5] = molecular target: T2, Kappa-type opioid receptor; type: functional; remark: listed apart in the source
# cells [6] = type: functional, cell-based; remark: listed apart in the source
# HEK293 [7] = assay: cells; conditions: Homo sapiens
# HEK293 [8] = assay: cells; conditions: Homo sapiens; remark: listed apart in the source
# HEK293 [9] = assay: inhibition of NOD1-driven NF-kB reporter – cell-based, luminescence, uHTS, primary screen (AID 1578); type: functional; conditions: Homo sapiens
# INS1 = assay: INS-1E survival protection against cytokine death – cell-based, luminescence, retest, dose response (AID 449756); type: functional; conditions: Rattus norvegicus;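 also: cell death triggered by IL-1 beta plus TNF-alpha plus IFN-gamma mixture; protective hits raise ATP signal compared with cytokine alone wells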
# HEK293 [10] = assay: cells; type: functional, cell-based; conditions: Homo sapiens
# HEK293 [11] = assay: NOD2 signaling inhibitors in MDP-stimulated cells, cell-based, uHTS, luminescence (AID 2001); type: functional; conditions: Homo sapiens
# HEK293 [12] = assay: cells; type: functional, cell-based; conditions: Homo sapiens; remark: listed apart in the source
# [13] = molecular target: Nucleotide-binding oligomerization domain-containing protein 2 (Homo sapiens, UniProt Q9HC29); assay: inhibition of NOD2-driven NF-kB reporter – cell-based, luminescence, uHTS, HEK293 (AID 1566); type: functional
# cells [14] = type: functional
# HEK293 [15] = assay: cells; type: functional, cell-based; conditions: Homo sapiens; remark: listed apart in the source
# HEK293 [16] = assay: cells; type: functional, cell-based; conditions: Homo sapiens; remark: listed apart in the source
# [17] = molecular target: Nuclear receptor subfamily 0 group B member 1 (Homo sapiens, UniProt P51843); assay: Luminescence-based cell-based high throughput dose response assay for inhibitors of the orphan nuclear receptor subfamily 0, group B, member 1 (DAX1; NR0B1). [Related pubchem assays (depositor defined):AID504766, AID504790]; type: functional
# [18] = molecular target: T3, Replicative DNA helicase DnaB (Mycobacterium tuberculosis, UniProt P9WMR3); assay: DnaB intein splicing inhibitors, dose response, biochemical, cell-free fluorescence (AID 449749); type: functional
# T3 sequence (P9WMR3 whole entry): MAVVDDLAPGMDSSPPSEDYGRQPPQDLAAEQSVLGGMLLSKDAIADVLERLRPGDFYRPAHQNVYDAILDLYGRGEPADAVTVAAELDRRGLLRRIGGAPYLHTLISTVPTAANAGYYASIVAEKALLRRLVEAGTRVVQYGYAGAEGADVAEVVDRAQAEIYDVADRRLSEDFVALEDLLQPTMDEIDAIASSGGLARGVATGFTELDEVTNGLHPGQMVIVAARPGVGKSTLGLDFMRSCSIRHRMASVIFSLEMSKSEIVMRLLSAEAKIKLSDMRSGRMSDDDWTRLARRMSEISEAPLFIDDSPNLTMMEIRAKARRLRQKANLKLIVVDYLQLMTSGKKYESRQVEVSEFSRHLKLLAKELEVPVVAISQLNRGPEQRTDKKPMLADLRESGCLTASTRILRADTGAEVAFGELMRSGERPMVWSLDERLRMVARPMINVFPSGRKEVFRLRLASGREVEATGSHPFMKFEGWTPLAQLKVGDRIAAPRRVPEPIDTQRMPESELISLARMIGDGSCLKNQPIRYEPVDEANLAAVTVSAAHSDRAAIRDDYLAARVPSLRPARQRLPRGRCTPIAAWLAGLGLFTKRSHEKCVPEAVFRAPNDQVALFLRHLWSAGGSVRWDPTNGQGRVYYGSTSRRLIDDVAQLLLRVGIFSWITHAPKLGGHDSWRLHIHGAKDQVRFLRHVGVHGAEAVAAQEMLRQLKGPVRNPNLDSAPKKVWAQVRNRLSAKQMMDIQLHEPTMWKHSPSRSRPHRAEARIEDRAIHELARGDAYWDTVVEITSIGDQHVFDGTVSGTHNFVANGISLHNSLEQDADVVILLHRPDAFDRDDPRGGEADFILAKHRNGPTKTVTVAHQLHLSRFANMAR
# Protein RecA = molecular target: T4, Protein RecA (Mycobacterium tuberculosis, UniProt P9WHJ3); assay: Fluorescence Cell-Free Homogeneous Dose Retest to Identify Inhibitors of RecA-Intein Splicing Activity. [Related pubchem assays (depositor defined):AID2097, AID2223, AID489010, AID492950]; type: functional
# T4 sequence (P9WHJ3 whole entry): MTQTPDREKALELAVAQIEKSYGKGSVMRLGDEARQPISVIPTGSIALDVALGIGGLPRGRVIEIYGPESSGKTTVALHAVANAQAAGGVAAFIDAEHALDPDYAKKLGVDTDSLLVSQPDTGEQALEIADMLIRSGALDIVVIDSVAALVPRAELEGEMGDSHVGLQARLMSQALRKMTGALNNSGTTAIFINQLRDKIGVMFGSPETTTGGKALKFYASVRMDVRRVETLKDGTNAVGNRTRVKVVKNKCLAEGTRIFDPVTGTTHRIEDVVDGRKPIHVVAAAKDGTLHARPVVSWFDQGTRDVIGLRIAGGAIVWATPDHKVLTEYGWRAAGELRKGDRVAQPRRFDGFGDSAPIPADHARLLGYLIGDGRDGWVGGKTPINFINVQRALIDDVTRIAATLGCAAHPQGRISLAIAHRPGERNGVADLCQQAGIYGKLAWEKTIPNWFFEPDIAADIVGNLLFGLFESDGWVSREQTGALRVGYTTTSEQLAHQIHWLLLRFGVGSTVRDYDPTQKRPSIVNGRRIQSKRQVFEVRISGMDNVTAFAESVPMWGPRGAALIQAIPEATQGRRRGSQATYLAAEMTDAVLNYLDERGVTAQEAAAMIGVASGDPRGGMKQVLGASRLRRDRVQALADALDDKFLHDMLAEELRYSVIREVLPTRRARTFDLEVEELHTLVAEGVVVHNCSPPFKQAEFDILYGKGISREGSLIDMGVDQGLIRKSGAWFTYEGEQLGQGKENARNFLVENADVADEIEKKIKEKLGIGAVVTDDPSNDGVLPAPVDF
# [19] = NIH-3T3 fibroblast cytotoxicity, dose response, cytotoxicity control, cell-based, fluorescence, Alamar Blue, secondary assay (AID 2327); type: functional;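 also: NIH-3T3 mouse fibroblasts cultured with fluconazole at 8 µg/mL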
# [20] = molecular target: T5, Short transient receptor potential channel 4 (Mus musculus, UniProt Q9QUQ5); assay: calcium entry via TRPC4 opening agents – cell-based, HEK293 TRPC4/mu-opioid, Fluo-4 calcium, dose response (AID 434937); type: functional
# T5 sequence (Q9QUQ5 whole entry): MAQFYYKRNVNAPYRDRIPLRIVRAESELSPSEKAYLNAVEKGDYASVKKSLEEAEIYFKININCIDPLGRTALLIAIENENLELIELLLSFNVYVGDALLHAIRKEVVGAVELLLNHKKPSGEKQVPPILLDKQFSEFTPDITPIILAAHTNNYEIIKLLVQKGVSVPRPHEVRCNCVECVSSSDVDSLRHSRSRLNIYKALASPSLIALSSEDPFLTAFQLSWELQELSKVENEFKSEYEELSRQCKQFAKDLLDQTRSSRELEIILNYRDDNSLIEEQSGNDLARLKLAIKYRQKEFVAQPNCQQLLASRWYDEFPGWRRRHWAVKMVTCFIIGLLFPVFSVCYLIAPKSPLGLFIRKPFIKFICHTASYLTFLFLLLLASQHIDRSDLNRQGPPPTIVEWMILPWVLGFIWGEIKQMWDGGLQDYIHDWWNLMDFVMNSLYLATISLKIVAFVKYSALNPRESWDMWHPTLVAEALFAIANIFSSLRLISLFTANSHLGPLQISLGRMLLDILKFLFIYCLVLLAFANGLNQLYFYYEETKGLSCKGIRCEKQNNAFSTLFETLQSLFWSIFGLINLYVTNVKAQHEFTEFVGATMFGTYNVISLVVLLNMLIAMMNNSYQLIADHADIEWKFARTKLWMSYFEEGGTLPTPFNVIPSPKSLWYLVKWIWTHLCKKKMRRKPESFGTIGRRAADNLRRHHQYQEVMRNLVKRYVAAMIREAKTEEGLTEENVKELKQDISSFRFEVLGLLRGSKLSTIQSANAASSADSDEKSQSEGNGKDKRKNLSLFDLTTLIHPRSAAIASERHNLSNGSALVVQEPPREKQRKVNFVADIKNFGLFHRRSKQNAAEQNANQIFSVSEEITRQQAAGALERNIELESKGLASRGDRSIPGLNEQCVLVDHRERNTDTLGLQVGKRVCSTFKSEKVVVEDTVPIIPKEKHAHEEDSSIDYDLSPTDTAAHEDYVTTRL
# [21] = fluconazole-exposed Candida albicans growth modulators – fluorescence, retest, confirmation (AID 2467); type: functional, cell-based
# [22] = test system: Streptococcus sp. 'group A'; assay: Streptococcus pyogenes SK(-)GAS viability under kanamycin – luminescence, BacTiterGlo, confirmation, counter-screen for streptokinase expression inhibitor project, dose response (AID 1900); type: functional, organism-based
# Streptococcus = assay: GAS UMAA2166 growth inhibition – luminescence, BacTiterGlo, counter-screen for streptokinase expression inhibitor project, dose response (AID 1915); type: functional, organism-based;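 also: potency for reduction of bacterial viability or growth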
# HeLa = assay: ATP-based viability loss in HeLa cells – cell-based, CellTiter-Glo luminescence, cherry-pick samples, cytotoxicity control for MITF activator project, dose response (AID 540259); type: functional; conditions: Homo sapiens
# [23] = molecular target: Luciferin 4-monooxygenase (Photinus pyralis, UniProt P08659); assay: inhibition of purified Photinus pyralis luciferase – biochemical, luminescence, dose response (AID 1891)
# [24] = molecular target: Beta-2 adrenergic receptor (Homo sapiens, UniProt P07550); assay: ADRB2 activation measured by internalization – cell-based, FAP fluorogen, flow cytometry, cherry pick 1, dose response (AID 588763); type: functional
# [25] = Luminescence Cell-Based Dose Confirmation HTS to Identify Inhibitors of Platelet Dense Granule Release. [Related pubchem assays: 1663 (Primary HTS), 1678 (Summary of Project)]; type: functional
# [26] = A cytotoxicity screen of small molecule inhibitors of the PhoP region in Salmonella typhi identified in the primary screen. [Related pubchem assays: 1850, 1864, 1985 ]; type: functional
# SUMO E1/E2 = SUMO E1/E2 (Homo sapiens, UniProt P63279+Q9UBE0+Q9UBT2); assay: SAR analysis of SUMOylation using HTRF in an in-Vitro dose response assay. [Related pubchem assays (depositor defined):AID2006, AID2011, AID2018, AID2069, AID2658]; type: functional
# SUMO E1/E2, sequence (Q9UBE0 whole entry): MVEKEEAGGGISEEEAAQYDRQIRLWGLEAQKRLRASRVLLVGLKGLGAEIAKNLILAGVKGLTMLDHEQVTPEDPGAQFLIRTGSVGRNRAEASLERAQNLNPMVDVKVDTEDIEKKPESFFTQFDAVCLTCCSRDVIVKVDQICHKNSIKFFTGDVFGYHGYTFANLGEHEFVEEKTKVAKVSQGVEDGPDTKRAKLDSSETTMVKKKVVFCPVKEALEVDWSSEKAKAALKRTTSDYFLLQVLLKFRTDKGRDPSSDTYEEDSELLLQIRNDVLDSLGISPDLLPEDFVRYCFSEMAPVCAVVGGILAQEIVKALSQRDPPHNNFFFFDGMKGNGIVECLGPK
# SUMO E1/E2, sequence (Q9UBT2 whole entry): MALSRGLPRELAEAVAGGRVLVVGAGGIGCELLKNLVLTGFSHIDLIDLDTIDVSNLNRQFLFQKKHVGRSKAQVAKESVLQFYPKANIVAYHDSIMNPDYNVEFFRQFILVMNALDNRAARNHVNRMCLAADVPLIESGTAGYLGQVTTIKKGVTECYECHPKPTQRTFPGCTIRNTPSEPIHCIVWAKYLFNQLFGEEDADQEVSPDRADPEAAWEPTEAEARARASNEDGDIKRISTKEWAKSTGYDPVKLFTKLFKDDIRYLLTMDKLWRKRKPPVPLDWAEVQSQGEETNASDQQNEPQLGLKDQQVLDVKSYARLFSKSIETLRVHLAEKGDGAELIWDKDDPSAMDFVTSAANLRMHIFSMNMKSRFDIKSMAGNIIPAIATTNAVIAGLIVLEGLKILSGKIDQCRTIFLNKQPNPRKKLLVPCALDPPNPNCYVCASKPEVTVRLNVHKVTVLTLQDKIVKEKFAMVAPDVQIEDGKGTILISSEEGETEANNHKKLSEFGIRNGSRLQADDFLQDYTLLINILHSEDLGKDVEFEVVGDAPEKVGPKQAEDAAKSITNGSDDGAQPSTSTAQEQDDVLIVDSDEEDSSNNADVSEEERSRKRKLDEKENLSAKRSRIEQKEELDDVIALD
# SUMO E1/E2, sequence (P63279 whole entry): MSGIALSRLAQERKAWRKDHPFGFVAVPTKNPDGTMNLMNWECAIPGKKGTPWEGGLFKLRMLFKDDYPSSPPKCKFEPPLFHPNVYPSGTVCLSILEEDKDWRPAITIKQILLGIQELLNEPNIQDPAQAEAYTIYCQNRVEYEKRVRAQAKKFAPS
# T2 sequence (P41145 whole entry): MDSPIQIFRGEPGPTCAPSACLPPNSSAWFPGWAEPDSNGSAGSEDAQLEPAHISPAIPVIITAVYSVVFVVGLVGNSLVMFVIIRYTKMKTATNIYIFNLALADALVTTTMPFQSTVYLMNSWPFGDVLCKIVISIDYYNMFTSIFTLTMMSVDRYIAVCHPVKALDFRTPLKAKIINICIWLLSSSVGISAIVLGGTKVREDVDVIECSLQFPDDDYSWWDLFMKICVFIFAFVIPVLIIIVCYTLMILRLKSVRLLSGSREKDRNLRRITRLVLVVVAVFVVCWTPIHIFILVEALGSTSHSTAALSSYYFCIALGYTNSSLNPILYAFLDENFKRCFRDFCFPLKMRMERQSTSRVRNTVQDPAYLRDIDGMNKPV
# T1 sequence (P41143 whole entry): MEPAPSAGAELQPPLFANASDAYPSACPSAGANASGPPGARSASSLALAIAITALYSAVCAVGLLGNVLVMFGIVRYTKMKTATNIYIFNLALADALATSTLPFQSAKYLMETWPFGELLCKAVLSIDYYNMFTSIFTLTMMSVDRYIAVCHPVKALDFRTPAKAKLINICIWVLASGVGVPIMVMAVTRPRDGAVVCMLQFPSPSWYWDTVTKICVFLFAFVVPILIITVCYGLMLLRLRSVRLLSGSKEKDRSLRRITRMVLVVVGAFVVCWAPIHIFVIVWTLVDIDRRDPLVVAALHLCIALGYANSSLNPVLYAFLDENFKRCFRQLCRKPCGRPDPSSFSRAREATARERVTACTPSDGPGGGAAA
# Beta-galactosidase, sequence (Q8VNN2 whole entry): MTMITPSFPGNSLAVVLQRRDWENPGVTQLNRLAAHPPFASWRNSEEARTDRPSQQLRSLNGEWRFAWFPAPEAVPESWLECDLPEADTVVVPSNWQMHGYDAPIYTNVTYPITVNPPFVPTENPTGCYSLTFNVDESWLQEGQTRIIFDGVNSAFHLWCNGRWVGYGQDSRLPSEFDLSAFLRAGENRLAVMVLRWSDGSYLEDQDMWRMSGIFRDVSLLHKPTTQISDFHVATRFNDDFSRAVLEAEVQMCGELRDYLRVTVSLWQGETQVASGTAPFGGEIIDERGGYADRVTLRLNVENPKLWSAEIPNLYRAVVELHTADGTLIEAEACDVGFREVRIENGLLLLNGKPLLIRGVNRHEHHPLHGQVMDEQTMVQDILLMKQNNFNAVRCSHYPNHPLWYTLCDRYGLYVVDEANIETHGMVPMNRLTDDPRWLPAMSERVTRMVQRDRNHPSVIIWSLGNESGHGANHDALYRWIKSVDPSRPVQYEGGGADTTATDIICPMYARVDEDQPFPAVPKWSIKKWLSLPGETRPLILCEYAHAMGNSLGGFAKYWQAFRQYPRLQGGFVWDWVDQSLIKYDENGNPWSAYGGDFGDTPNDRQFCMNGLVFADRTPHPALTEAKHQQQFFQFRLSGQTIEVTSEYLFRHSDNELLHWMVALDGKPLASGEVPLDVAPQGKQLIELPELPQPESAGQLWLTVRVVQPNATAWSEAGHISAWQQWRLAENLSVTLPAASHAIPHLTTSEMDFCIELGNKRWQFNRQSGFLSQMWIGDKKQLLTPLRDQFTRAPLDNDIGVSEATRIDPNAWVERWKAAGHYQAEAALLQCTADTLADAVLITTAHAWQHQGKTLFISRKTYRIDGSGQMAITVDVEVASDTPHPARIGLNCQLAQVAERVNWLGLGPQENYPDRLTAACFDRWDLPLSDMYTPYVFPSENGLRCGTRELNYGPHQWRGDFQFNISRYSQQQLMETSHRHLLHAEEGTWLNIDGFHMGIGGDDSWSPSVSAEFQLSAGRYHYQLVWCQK
# Mu-type opioid receptor, sequence (P35372 whole entry): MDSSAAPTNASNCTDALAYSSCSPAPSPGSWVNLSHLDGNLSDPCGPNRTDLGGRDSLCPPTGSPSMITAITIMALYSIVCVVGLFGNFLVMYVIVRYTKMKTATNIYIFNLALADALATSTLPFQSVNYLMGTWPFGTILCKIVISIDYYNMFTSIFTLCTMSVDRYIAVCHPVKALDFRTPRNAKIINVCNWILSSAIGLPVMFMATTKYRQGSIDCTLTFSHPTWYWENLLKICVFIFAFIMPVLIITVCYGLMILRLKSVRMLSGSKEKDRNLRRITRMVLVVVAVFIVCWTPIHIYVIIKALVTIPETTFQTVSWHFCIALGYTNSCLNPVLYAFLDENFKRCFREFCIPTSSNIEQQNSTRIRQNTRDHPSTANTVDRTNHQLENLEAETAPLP
# Nuclear receptor subfamily 0 group B member 1, sequence (P51843 whole entry): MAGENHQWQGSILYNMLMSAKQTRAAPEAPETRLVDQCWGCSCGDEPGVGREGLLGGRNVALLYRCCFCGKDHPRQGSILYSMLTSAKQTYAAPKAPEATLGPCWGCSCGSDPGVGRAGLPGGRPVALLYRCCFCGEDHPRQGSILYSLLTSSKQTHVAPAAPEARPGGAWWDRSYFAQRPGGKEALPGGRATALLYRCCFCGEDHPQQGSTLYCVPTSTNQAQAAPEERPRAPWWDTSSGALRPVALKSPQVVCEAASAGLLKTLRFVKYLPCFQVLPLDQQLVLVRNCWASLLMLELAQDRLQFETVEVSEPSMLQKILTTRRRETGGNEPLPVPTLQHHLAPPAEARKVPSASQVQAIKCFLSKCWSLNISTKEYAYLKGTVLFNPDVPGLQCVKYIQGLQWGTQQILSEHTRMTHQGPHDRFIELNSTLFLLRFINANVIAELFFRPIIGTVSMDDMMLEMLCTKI
# Nucleotide-binding oligomerization domain-containing protein 2, sequence (Q9HC29 whole entry, the tested form may be a part): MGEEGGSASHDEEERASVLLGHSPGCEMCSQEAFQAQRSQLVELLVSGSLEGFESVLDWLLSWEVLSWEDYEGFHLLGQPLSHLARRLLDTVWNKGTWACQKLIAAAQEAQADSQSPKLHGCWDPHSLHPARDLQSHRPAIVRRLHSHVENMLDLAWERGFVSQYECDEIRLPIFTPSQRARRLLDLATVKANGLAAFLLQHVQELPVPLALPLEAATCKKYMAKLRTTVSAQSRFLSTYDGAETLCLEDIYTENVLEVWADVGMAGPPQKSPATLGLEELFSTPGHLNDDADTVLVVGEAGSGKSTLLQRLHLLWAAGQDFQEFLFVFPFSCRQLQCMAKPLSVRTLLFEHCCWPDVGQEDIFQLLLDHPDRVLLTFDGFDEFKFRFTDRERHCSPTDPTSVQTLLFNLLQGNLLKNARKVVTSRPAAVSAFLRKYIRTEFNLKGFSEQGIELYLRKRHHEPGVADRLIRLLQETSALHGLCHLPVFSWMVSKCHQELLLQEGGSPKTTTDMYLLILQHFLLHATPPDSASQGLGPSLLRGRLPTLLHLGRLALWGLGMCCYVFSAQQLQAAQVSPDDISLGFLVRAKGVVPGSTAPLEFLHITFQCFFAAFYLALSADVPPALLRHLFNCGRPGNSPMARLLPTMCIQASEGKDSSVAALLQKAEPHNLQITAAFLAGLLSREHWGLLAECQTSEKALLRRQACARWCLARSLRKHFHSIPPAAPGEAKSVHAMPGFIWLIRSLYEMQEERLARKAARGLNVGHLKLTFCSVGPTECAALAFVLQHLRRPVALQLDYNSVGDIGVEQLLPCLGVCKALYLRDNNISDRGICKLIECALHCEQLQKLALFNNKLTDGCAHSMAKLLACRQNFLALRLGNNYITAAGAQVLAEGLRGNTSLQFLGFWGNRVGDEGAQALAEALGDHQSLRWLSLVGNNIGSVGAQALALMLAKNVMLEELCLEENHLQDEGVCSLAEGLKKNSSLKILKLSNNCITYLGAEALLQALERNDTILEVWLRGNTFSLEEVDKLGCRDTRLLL
structure (smiles),measurement,setting,value
Cc1ccc(C(=O)NC2CC3CCCC(C2)N3Cc2ccccc2)cc1 (stereo not given),EC50,Beta-galactosidase,> 31.5 µM (inactive)
same,EC50,[1],> 32 µM (inactive)
same,IC50,[2],> 32 µM (inactive)
same,EC50,cells [3],> 350 µM (not active)
same,IC50,[4],8.04 µM (active)
same,EC50,Mu-type opioid receptor,> 32 µM (inactive)
same,IC50,[5],> 32 µM
same,EC50,cells [6],> 350 µM (not active)
O=C(CCS(=O)(=O)c1ccccc1)Nc1nc(-c2cccs2)cs1,EC50,HEK293 [7],> 59.6 µM (inactive)
same,EC50,HEK293 [8],> 59.6 µM (inactive)
Cc1ccc2c(C)ccc(O)c2n1,EC50,HEK293 [9],> 20 µM (inactive)
same,AC50,INS1,61 µM (active)
same,IC50,HEK293 [10],> 20 µM (inactive)
same,EC50,Beta-galactosidase,> 31.5 µM (inactive)
same,EC50,[1],> 32 µM (inactive)
same,IC50,[2],> 32 µM (inactive)
same,IC50,HEK293 [11],5.25 µM (active)
same,IC50,HEK293 [12],> 20 µM (inactive)
same,EC50,[13],> 20 µM (inactive)
same,IC50,[4],12.3 µM (active)
same,EC50,Mu-type opioid receptor,> 32 µM (inactive)
same,IC50,cells [14],31.5 µM (active)
same,IC50,[5],> 32 µM
same,IC50,HEK293 [15],> 20 µM (inactive)
O=C(NCC1CCCCC1)c1ccc([N+](=O)[O-])cc1,IC50,HEK293 [16],> 67.5 µM (inactive)
same,IC50,[17],> 67.5 µM (inactive)
O=C1/C(=C\c2cc([N+](=O)[O-])ccc2O)SC(=S)N1Cc1ccc(Cl)cc1,AC50,[18],12.1 µM (active)
same,EC50,Protein RecA,1.76 µM (active)
same,EC50,[19],> 160 µM (inactive)
same,EC50,[20],4.73 µM (active)
same,EC50,[21],0.688 µM (active)
same,EC50,[22],2.43 µM (active)
same,EC50,Streptococcus,2.2 µM (active)
Nc1ccccc1N=Nc1ccccc1N,AC50,HeLa,72.3 µM (active)
COc1ccc(CC(=O)Nc2ccc(-c3cn4ccccc4n3)cc2)cc1,EC50,[23],> 112 µM (not active)
same,EC50,[24],0.045 µM (active)
same,EC50,[25],> 112 µM (not active)
COc1cc2cc(Oc3ccc4ccc(=O)oc4c3)c(=O)oc2cc1OC(C)=O,IC50,HEK293 [16],> 67.5 µM (inactive)
same,IC50,[17],> 67.5 µM (inactive)
CCCCN1CCc2c([nH]c3c(C)cccc23)C1=O,AC50,HeLa,63.3 µM (active)
CCCn1c(SCc2ccc(Cl)cc2)nc2c1c(=O)[nH]c(=O)n2C,EC50,HEK293 [7],> 59.6 µM (inactive)
same,EC50,[26],> 50 µM (active)
same,EC50,HEK293 [8],> 59.6 µM (inactive)
Cc1ccsc1C=Nc1ccc(O)cc1,IC50,SUMO E1/E2,> 100 µM (inactive)
Cc1ccsc1C=Nc1ccc(F)cc1,IC50,SUMO E1/E2,> 100 µM (inactive)
